For assay [1], the target named is Human KDR (residues 790-1356) (Homo sapiens (Human), UniProt P35968). The experiment in a line: Human KDR kinase assay, HTRF KinEase (Example B-2). In kind it is biochemical. Particulars: protocol of Example B-2 (other compounds). The procedure, abridged:
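Human KDR residues 790-1356 (0.1 ng/well) in buffer with 5 mM MgCl2, 1 mM MnCl2, 1 mM DTT, biotinylated peptide substrate, ATP at Km (4.0 μM), 3% DMSO, 10 compound concentrations; 40 min, room temperature. EDTA stop, streptavidin-XL665/Eu-TK antibody HTRF read 665/620 nm; 4-parameter IC50.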

Assay [2] deals with Human MER (residues 528-999) (Homo sapiens (Human), UniProt Q12866). Put plainly: Human Mer kinase assay, HTRF KinEase (Example C-2). The format is biochemical. Particulars: protocol of Example C-2 (other compounds). The procedure, abridged: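 HTRF KinEase TK assay with MER 528-999 (1 ng/well) in enzymatic buffer plus 5 mM MgCl2 and 1 mM DTT, biotinylated peptide substrate and ATP at Km (40 μM), 3% DMSO final, 60 min at room temperature. Stopped with EDTA detection mix (SA-XL665, TK antibody-Eu3+), read at 665/620 nm after 60 min; IC50 from 10-point 4-parameter fit, normalized to DMSO and 1 μM reference.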
Human MER (residues 528-999), sequence (Q12866 528-999): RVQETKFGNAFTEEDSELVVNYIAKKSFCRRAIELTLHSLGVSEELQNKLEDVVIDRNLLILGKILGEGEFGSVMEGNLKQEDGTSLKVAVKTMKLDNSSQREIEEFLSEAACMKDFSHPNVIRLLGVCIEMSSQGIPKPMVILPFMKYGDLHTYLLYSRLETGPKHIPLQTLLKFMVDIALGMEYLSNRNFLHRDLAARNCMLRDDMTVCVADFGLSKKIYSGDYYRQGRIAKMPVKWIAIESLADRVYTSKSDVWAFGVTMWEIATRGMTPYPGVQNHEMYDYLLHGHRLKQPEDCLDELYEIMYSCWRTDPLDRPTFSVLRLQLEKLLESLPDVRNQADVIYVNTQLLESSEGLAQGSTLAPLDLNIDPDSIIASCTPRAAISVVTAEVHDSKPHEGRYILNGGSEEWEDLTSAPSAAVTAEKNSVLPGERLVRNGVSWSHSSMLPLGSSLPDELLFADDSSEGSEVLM
(In general: TR-FRET usually uses a lanthanide donor and a delayed reading to cut background.)

Assay [3] concerns the target KDR (phospho-KDR, VEGF165-stimulated HUVEC cells) (Homo sapiens (Human), UniProt P35968). Put plainly: KDR autophosphorylation ELISA in HUVEC cells (Example G). In kind it is cell-based. Particulars: cellular activity; KDR autophosphorylation ELISA in HUVEC cells. The procedure, abridged:
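IC50 values derive from nonlinear curve fitting of phospho-KDR levels measured by ELISA and interpolated from a phosphoprotein standard. Beforehand, starved HUVECs received compound (0.3% DMSO vehicle) for one hour and were activated with VEGF165 at 100 ng/mL for 5 min.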
(In general: In an ELISA, binding on a coated surface is turned into a signal by an enzyme label.)

Assay [4] concerns the target Mer (phospho-Mer, MERTK-transfected 293A cells) (Homo sapiens (Human), UniProt Q12866). The experiment in a line: Mer autophosphorylation ELISA in transient transfected 293A cells (Example H). In kind it is cell-based. Particulars: cellular activity; Mer autophosphorylation ELISA in transient transfected 293A cells. The procedure, abridged:
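Human MERTK transiently transfected into 293A cells; compounds as 8-point dose curve in serum-free medium (0.3% DMSO final), 1 h. Lysates assayed by phospho-Mer sandwich ELISA against phospho-Mer standard; DMSO = 100%, reference inhibitor = 0% activity; IC50 from 4-parameter logistic fit.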

Structures are written as SMILES. Bounds are passed on as bounds.

KDR (phospho-KDR, VEGF165-stimulated HUVEC cells), sequence (P35968 20-1356): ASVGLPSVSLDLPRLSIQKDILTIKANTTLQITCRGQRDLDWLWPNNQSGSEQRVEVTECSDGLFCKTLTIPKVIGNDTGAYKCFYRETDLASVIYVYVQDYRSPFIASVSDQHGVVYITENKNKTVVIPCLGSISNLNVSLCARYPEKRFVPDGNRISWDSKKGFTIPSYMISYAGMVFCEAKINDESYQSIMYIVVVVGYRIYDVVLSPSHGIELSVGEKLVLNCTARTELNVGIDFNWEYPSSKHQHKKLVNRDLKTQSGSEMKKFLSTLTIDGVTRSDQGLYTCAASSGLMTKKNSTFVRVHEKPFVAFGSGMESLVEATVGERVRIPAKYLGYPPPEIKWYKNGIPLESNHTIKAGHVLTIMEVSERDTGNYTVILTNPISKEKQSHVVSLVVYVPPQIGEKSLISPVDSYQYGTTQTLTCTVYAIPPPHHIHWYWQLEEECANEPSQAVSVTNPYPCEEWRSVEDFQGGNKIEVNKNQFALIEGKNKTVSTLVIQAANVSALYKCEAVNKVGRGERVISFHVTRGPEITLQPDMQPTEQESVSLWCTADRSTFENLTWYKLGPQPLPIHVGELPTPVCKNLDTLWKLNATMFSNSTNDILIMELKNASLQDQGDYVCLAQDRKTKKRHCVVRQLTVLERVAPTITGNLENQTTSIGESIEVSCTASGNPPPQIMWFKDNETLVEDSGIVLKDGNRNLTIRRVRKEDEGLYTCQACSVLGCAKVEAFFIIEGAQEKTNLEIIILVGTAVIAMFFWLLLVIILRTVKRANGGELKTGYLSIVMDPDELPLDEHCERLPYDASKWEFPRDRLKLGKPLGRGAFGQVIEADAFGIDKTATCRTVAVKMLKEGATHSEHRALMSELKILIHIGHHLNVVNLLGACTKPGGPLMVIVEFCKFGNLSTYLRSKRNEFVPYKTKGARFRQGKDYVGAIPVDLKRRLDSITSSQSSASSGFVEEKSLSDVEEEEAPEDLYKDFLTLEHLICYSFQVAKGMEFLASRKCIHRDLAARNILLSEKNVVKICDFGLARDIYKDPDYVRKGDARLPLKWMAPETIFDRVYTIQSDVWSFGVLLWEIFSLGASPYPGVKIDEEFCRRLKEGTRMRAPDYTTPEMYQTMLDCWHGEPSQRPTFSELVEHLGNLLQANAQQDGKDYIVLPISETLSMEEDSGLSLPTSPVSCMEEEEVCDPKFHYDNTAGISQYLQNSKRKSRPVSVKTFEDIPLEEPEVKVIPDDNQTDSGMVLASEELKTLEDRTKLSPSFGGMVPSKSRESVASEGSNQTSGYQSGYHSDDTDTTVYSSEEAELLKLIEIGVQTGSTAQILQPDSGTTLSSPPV
Mer (phospho-Mer, MERTK-transfected 293A cells), sequence (Q12866 21-999): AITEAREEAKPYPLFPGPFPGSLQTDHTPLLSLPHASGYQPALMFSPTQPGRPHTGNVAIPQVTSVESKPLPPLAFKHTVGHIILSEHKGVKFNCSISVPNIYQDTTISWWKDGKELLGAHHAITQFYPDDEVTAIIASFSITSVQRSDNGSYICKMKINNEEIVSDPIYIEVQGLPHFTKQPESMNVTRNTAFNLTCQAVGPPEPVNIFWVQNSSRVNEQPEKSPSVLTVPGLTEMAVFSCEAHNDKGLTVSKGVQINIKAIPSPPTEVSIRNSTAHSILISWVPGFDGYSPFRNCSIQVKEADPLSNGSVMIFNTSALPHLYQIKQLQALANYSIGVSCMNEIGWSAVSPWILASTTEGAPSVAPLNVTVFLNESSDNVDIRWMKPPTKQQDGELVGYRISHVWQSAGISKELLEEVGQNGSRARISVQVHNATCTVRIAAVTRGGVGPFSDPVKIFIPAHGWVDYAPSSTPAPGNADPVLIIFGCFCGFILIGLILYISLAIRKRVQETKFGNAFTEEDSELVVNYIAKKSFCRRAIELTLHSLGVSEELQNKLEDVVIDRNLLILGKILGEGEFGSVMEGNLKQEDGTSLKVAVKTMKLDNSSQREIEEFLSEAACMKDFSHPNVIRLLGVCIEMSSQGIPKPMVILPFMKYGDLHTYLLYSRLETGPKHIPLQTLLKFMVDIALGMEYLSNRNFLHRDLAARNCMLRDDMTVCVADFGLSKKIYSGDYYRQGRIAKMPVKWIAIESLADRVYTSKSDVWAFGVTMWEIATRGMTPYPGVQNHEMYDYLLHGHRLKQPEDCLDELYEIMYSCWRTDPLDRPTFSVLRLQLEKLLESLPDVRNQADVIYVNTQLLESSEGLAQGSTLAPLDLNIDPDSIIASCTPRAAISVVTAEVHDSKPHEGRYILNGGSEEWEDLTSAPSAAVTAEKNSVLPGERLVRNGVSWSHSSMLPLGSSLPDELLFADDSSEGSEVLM
Human KDR (residues 790-1356), sequence (P35968 790-1356): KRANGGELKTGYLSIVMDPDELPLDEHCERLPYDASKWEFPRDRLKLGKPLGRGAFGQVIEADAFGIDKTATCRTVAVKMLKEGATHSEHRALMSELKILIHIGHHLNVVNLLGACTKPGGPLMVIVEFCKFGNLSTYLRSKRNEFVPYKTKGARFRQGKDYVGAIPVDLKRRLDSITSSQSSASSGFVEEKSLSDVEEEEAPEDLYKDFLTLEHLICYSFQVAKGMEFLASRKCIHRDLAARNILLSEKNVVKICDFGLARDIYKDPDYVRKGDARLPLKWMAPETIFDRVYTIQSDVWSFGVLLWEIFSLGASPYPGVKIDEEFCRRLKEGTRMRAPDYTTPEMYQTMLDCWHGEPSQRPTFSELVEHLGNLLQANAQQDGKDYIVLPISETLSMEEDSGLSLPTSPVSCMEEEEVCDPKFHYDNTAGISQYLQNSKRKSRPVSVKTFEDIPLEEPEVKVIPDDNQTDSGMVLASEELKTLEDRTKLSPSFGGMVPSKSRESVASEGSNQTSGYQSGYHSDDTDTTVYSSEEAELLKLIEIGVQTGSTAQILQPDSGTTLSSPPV

In general, IC50 refers to the midpoint of a concentration-inhibition curve. The low end stands for inhibition by little substance, the high end for a need for much substance. Consider `COc1cc2nccc(Oc3cc(F)c(NC(=O)c4cn(C)c(C)c(-c5ccc(F)cc5)c4=O)cc3F)c2nc1OC` [Compound 391, N-[4-[(6,7-dimethoxy-1,5-naphthyridin-4-yl)oxy]-2,5-difluorophenyl]-5-(4-fluorophenyl)-1,6-dimethyl-4-oxopyridine-3-carboxamide], for which the IC50 in assay [1] was 100 to 300 nM; in assay [2], under 100 nM; in assay [3] it was over 300 nM; in assay [4] it was under 100 nM.

For the compound `COc1cc2nccc(Oc3c(F)cc(NC(=O)c4cn(C)c(C)c(-c5ccc(F)cc5)c4=O)cc3F)c2nc1OC` [Compound 392, N-[4-[(6,7-dimethoxy-1,5-naphthyridin-4-yl)oxy]-3,5-difluorophenyl]-5-(4-fluorophenyl)-1,6-dimethyl-4-oxopyridine-3-carboxamide], the concentration for half-maximal inhibition (IC50) in assay [1] is over 300 nM; in assay [2], under 100 nM; in assay [3] it was over 300 nM; in assay [4], under 100 nM.

Take `COc1cc2nccc(Oc3ccc(NC(=O)c4ncc(C)n(-c5ccc(F)cc5C)c4=O)cc3F)c2nc1OC` [Compound 393, N-[4-[(6,7-dimethoxy-1,5-naphthyridin-4-yl)oxy]-3-fluorophenyl]-4-(4-fluoro-2-methylphenyl)-5-methyl-3-oxopyrazine-2-carboxamide]: the IC50 in assay [1], in assay [2], in assay [3] and in assay [4] was under 100 nM throughout.

Turning to `COc1ccc2nccc(Oc3ccc(NC(=O)c4ncc(C)n(-c5ccc(F)cc5C)c4=O)cc3F)c2n1` [Compound 394, N-[3-fluoro-4-[(6-methoxy-1,5-naphthyridin-4-yl)oxy]phenyl]-4-(4-fluoro-2-methylphenyl)-5-methyl-3-oxopyrazine-2-carboxamide], the half-inhibitory concentration (IC50) was over 300 nM in assay [1], under 100 nM in assay [2], over 300 nM in assay [3] and under 100 nM in assay [4].

Consider `COc1cc2nccc(Oc3ncc(NC(=O)c4cn(C5CC5)cc(-c5ccc(F)cc5)c4=O)cc3F)c2cc1OC` [Compound 399, 1-cyclopropyl-N-[6-(6,7-dimethoxyquinolin-4-yl)oxy-5-fluoropyridin-3-yl]-5-(4-fluorophenyl)-4-oxopyridine-3-carboxamide], for which the IC50 is over 300 nM in assay [1], under 100 nM in assay [2], over 300 nM in assay [3] and under 100 nM in assay [4].

`COc1cc2nccc(Oc3ncc(NC(=O)c4cn(C5CN(C)C5)cc(-c5ccc(F)cc5)c4=O)cc3F)c2cc1OC` [Compound 400, N-[6-(6,7-dimethoxyquinolin-4-yl)oxy-5-fluoropyridin-3-yl]-5-(4-fluorophenyl)-1-(1-methylazetidin-3-yl)-4-oxopyridine-3-carboxamide]: the IC50 is over 300 nM in assay [1], under 100 nM in assay [2], over 300 nM in assay [3] and under 100 nM in assay [4].

The record behind these values is patent US12371428B2 (Exelixis, Inc., priority 2019, dated 2025).
